{"source": "patent US20250281502A1", "about": "“NEW DRUG APPLICATION” (Centre National de la Recherche Scientifique, priority 2021, published 2025)", "key": {"[1]": {"test_system": "Human Myeloma Cell Lines (HMCLs)", "assay": "CellTiter-Glo cell viability, IC50 in human myeloma cell lines", "format": "cell-based", "description": "JJN3, OPM2, RPM18266, LP1, AMO1, SKMM2 human myeloma cell lines (HMCLs) were obtained from ATCC (Molshein, France) and were cultured in RPMI 1640 medium, supplemented with 10% fetal calf serum (Biochrom, Berlin, Germany) and 2 mM L-Glutamine. The interleukin-6-dependent cell lines XG1, XG2, XG6, XG7, XG12, XG19, XG20, XG21 were obtained as previously described and maintained in the presence of 2 ng/mL recombinant IL-6 (R&D Systems, Oxon, UK), 10% fetal calf serum and 2 mM L-Glutamine.\nCells in culture were stained using trypan blue solution (Sigma-Aldrich, St. Louis MO, USA) and viable cells were counted under a light microscope. The CellTiter-Glo Luminescent Viability assay (Promega, Leiden, The Netherlands) was used to measure the effect on cell viability according to manufacturer's instructions, and the 50% inhibition (IC50) was determined using GraphPad Prism software (http://www.graphpad.com/scientific-software/prism/)."}, "XG2-MeIR cell line": {"test_system": "XG2-MeIR cell line", "assay": "Melphalan response with or without Pyridostatin, Melphalan-resistant XG2 cell line", "format": "cell-based, human", "details": "4 days (FIGS. 14 and 15)"}, "[2]": {"test_system": "primary MM cells from patients", "assay": "Primary patient samples, viable CD138+ MM cells by flow cytometry", "format": "cell-based, human", "details": "co-cultured with bone marrow microenvironment (FIG. 6B, 6C)"}, "[3]": {"test_system": "normal cells from the bone marrow microenvironment", "assay": "Primary patient samples, co-cultured normal bone marrow cells by flow cytometry", "format": "cell-based, human", "details": "five MM patients (FIG. 6C)", "description": "FIG. 6A represents the IC50 of Pyridostatin (nM) for […]: a is OPM2; b is XG12; c is XG21; d is XG19; e is RPM18266; f is LP1; g is XG6; h is JJN3; I is XG2; j is XG7; k: L363; I is XG1; m is AMO1; n is SKMM2 and o is XG20. IC50 of Pyridostatin +/−SD are representative of 3 independent experiments. NA: not reached. FIG. 6B represents the Pyridostatin toxicity on bone marrow cells (x-axis is the Pyridostatin concentration in μM; y-axis is the cell count in percentage of the control (0 μM of Pyridostatin)). The toxicity of Pyridostatin was assessed on primary bone marrow cells from one MM patient (dark grey bars), co-cultured with normal bone marrow microenvironment (light grey). The toxicity on MM cells and normal bone marrow cells was assessed by flow cytometry using CD138 and CD28 marker cells. FIG. 6C represents the Pyridostatin toxicity on bone marrow cells (x-axis is the Pyridostatin concentration in μM; y-axis is the cell count in percentage of the control (0 μM of Pyridostatin)). The toxicity of Pyridostatin was assessed on primary bone marrow cells from five MM patient (black bars) and co-cultured with normal bone marrow microenvironment (grey bars). The toxicity on MM cells and normal bone marrow cells was assessed by flow cytometry using CD138 and CD28 marker cells. Data are mean values of five independent experiments. […]"}, "XG7-RH": {"test_system": "XG7-RH", "assay": "Western blot of DNA damage response in XG7 with inducible RNase H", "format": "cell-based, human", "details": "XG7-RH with doxycycline, 5 h or 24 h (FIG. 7)", "description": "FIGS. 7A and 7B represent Western blots. Doxy stands for doxycycline. PDS stands for Pyridostatin (concentration in μM). XG7 cell line was transduced with a doxycycline-inducible lentivirus containing RNase H gene (XG7-RH). XG7-RH was cultured with or without doxycycline in absence or presence of Pyridostatin during 5 h or 24 h. Western blot membranes were stained with anti-Phospho-Chk2, anti-Phospho-P53, anti-P53, anti-PARP, anti-myc (FIG. 7A) and anti-p21, anti-p16, anti-p27 and anti-gH2AX (FIG. 7B). Tubulin protein level was used as control.\nWestern Blot Analysis Western blot analysis was performed as previously described (Viziteu, E. et al., Leukemia 31, 2104-2113, 2017). Tubulin was used as loading control. All antibodies used were purchased from Cell Signaling, except for p21, p27, Myc, and phospho-Histone H2A.X. Myc antibody was obtained from Santa Cruz biotechnology (Texas, USA), phospho-Histone H2A.X antibody from Merck Millipore (Sigma-Aldrich), and p27 antibody was from Sigma-Aldrich."}, "MM cell": {"test_system": "MM cell", "assay": "MM cell growth, apoptosis and cell cycle after Pyridostatin", "format": "cell-based, human"}, "XG2 cell line": {"test_system": "XG2 cell line", "assay": "Melphalan IC50 with or without Pyridostatin, XG2 cell line", "format": "cell-based", "details": "Homo sapiens"}}}
{"smiles": "NCCOc1cc(C(=O)Nc2cc(OCCN)c3ccccc3n2)nc(C(=O)Nc2cc(OCCN)c3ccccc3n2)c1", "note": "[Pyridostatin]", "values": [{"measurement": "resistance to PDS", "setting": "[1]; 5 cell lines (FIG. 6A)", "value": "higher resistance"}, {"measurement": "IC50", "setting": "[1]; Homo sapiens, 10 HMCLs (FIG. 6A), read-out: IC50 of Pyridostatin", "value": "≤ 2000", "unit": "nM"}, {"measurement": "re-sensitization of resistant cells to Melphalan", "setting": "XG2-MeIR cell line", "value": "re-sensitize the resistant cells (XG2-MeIR) to Melphalan"}, {"measurement": "toxicity on primary MM cells", "setting": "[2]", "value": "toxicity"}, {"measurement": "toxicity on co-cultured normal cells", "setting": "[3]", "value": "without any significant toxicity"}, {"measurement": "DNA damage response after PDS treatment on inducible RNase H expression (phosphorylation of Chk2, p53; p21 and p16 expression)", "setting": "XG7-RH", "value": "significant reduction of DNA damage response"}, {"measurement": "MM cell growth", "setting": "MM cell", "value": "inhibits MM cell growth"}, {"measurement": "apoptosis", "setting": "MM cell", "value": "induces apoptosis"}, {"measurement": "cell cycle", "setting": "MM cell", "value": "significant accumulation in G2/M phase"}]}
{"smiles": "COc1cc(OC)c2c(=O)[nH]c(-c3cc(C)c(OCCO)c(C)c3)nc2c1", "note": "[RVX-208, 2-[4-(2-hydroxyethoxy)-3,5-dimethylphenyl]-5,7-dimethoxy-4(3H)-quinazolinone]", "values": [{"measurement": "sensitivity of HMCLs with high TRC score compared to low TRC score", "setting": "[1]", "value": "significantly more sensitive"}]}
{"smiles": "N[C@@H](Cc1ccc(N(CCCl)CCCl)cc1)C(=O)O", "note": "[Melphalan]", "values": [{"measurement": "IC50", "setting": "XG2 cell line; 96 h, black bars, Melphalan and Pyridostatin at 1.25 μM for 4 days, first value printed for XG2 (FIG. 15)", "value": 1490, "unit": "nM"}, {"measurement": "IC50", "setting": "XG2 cell line; 96 h, black bars, Melphalan and Pyridostatin at 1.25 μM for 4 days, second value printed for XG2 (FIG. 15)", "value": 632, "unit": "nM"}, {"measurement": "IC50", "setting": "XG2 cell line; grey bars, Melphalan alone, first value printed for XG2 (FIG. 15)", "value": 632, "unit": "nM"}, {"measurement": "IC50", "setting": "XG2 cell line; grey bars, Melphalan alone, second value printed for XG2 (FIG. 15)", "value": 350, "unit": "nM"}]}
{"smiles": "CCNC(=O)C[C@@H]1N=C(c2ccc(Cl)cc2)c2cc(OC)ccc2-n2c(C)nnc21", "note": "[I-BET-762, (4S)-6-(4-Chlorophenyl)-N-ethyl-8-methoxy-1-methyl-4H-[1,2,4]triazolo[4,3-a][1,4]benzodiazepine-4-acetamide]", "values": [{"measurement": "sensitivity of HMCLs with high TRC score compared to low TRC score", "setting": "[1]", "value": "significantly more sensitive"}]}
